The logP is a log measure of how a compound divides between an organic and an aqueous phase. Higher therefore signals a more lipophilic compound. `CCCCCCCCCCCc1ccccc1` returned a logP of 8.14.
As to `CCCCCCCC(CC)c1ccccc1` (configuration not stated), the logP is 7.
Turning to `CCCCCCCC(CCC)c1ccccc1` (configuration not stated), the log partition coefficient (logP) worked out at 7.59.
The compound `CCCCCCCCCCCCCc1ccccc1` showed a lipophilicity (logP) of 9.36.
The value for `CCCCCC(CCCCC)c1ccccc1` was 7.45; that for `CCCCCCCCCCC(CCC)c1ccccc1` (configuration not stated) was 9.25; that for `CCCCCC(CCCC)c1ccccc1` (configuration not stated) was 6.9.
The compound `CCCCCCCCCC(CCC)c1ccccc1` (configuration not stated) returned a log partition coefficient (logP) of 8.62.
With `CCCCCCC(CCCCC)c1ccccc1` (configuration not stated), the lipophilicity (logP) is 8.01.
The value for `CCCCCCCCCCCC(C)c1ccccc1` (configuration not stated) was 8.77.
The figure for `CCCCCCCCCCC(C)c1ccccc1` (configuration not stated) is 8.19; for `CCCCCCCCCCCCC(C)c1ccccc1` (configuration not stated) it is 9.29.
The value for `CCCCCCCCC(C)c1ccccc1` (configuration not stated) was 7.06; that for `CCCCCCCCCCCCc1ccccc1` was 8.65; that for `CCCCCCCCCC(C)c1ccccc1` (configuration not stated) was 7.63.
Compound `CCCCCCCCCCCC(CC)c1ccccc1` (configuration not stated) had a log partition coefficient (logP) of 9.29.
The figure for `CCCCCCCCCCC(CC)c1ccccc1` (configuration not stated) is 8.65.
The compound `CCCCCCCCCC(CCCC)c1ccccc1` (configuration not stated) returned a logP of 9.16.
`CCCCCCCCC(CC)c1ccccc1` (configuration not stated) registered a logP of 7.53.
On to `CCCCCCCC(CCCCC)c1ccccc1` (configuration not stated), for which the logP turned out to be 8.56.
The figure for `CCCCCCCCCC(CC)c1ccccc1` (configuration not stated) is 8.1.
As for `CCCCCCC(CCC)c1ccccc1` (configuration not stated), the logP worked out at 7.
The value for `CCCCCCCC(CCCC)c1ccccc1` (configuration not stated) was 8.01; that for `CCCCCCCCC(CCC)c1ccccc1` (configuration not stated) was 8.07.
Compound `CCCCCCCCC(CCCCC)c1ccccc1` (configuration not stated) yielded a logP of 9.16.
The value for `CCCCCCC(CCCC)c1ccccc1` (configuration not stated) was 7.45; that for `CCCCCCCCC(CCCC)c1ccccc1` (configuration not stated) was 8.56.

Values taken from the OPERA property sets (Mansouri et al. 2018).
